ChEMBL document CHEMBL6115029, “Discovery of Daraxonrasib (RMC-6236), a Potent and Orally Bioavailable RAS(ON) Multi-selective, Noncovalent Tri-complex Inhibitor for the Treatment of Patients with Multiple RAS-Addicted Cancers” (J Med Chem, 2025)
pEC50, pIC50, pKd: −log10 of the molar value. Converted amounts (≈) assume the structure as drawn.

Key:
[1] = target: Peptidyl-prolyl cis-trans isomerase A (Homo sapiens, UniProt P62937); assay: Binding affinity to Avi-tagged Cyclophilin A (unknown origin) assessed as dissociation constant by SPR analysis
Sequence of Peptidyl-prolyl cis-trans isomerase A (P62937 whole entry, the tested form may be a part): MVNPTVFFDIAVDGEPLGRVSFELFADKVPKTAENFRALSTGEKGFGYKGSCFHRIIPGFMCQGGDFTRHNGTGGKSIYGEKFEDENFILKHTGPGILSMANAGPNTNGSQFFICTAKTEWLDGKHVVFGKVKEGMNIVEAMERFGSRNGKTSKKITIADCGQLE

[2] = Inhibition of 6His-tagged KRAS G12V mutant(1 to 169 residues)/GST-tagged GMPPNP-bound BRAF RBD (155 to 229 reisudes)/Cyclophilin A (unknown origin) tri-complex protein-protein interaction incubated for 3 hrs by TR-FERT based disruption assay; parameters: species or system Homo sapiens
[3] = Inhibition of 6His-tagged KRAS G12D mutant(1 to 169 residues)/GST-tagged GMPPNP-bound BRAF RBD (155 to 229 reisudes)/Cyclophilin A (unknown origin) tri-complex protein-protein interaction incubated for 3 hrs by TR-FERT based disruption assay; parameters: species or system Homo sapiens
[4] = Inhibition of 6His-tagged KRAS G12C mutant(1 to 169 residues)/GST-tagged GMPPNP-bound BRAF RBD (155 to 229 reisudes)/Cyclophilin A (unknown origin) tri-complex protein-protein interaction incubated for 3 hrs by TR-FERT based disruption assay; parameters: species or system Homo sapiens
[5] = Inhibition of 6His-tagged wildtype KRAS (1 to 169 residues)/GST-tagged GMPPNP-bound BRAF RBD (155 to 229 reisudes)/Cyclophilin A (unknown origin) tri-complex protein-protein interaction incubated for 3 hrs by TR-FERT based disruption assay; parameters: species or system Homo sapiens
[6] = tested on: CAPAN-1; assay: Cytotoxicity against human CAPAN-1 cells harboring KRAS G12V mutant cultured as 2D cells assessed as reduction in cell viability incubated for 120 hrs by CellTiter-Glo luminescence assay; format: functional, cell-based; conditions: CAPAN-1, 120 h
[7] = tested on: ASPC1; assay: Cytotoxicity against human ASPC1 cells harboring KRAS G12D mutant cultured as 2D cells assessed as reduction in cell viability incubated for 120 hrs by CellTiter-Glo luminescence assay; format: functional, cell-based; conditions: ASPC1, 120 h
[8] = tested on: NCI-H358; assay: Cytotoxicity against human NCI-H358 cells harboring KRAS G12C mutant cultured as 2D cells assessed as reduction in cell viability incubated for 120 hrs by CellTiter-Glo luminescence assay; format: functional, cell-based; conditions: NCI-H358, 120 h
[9] = tested on: NCI-H1975; assay: Cytotoxicity against human NCI-H1975 cells harboring wildtype KRAS cultured as 2D cells assessed as reduction in cell viability incubated for 120 hrs by CellTiter-Glo luminescence assay; format: functional, cell-based; conditions: NCI-H1975, 120 h
[10] = Inhibition of ERK1/2 phosphorylation in human CAPAN-1 cells harboring KRAS G12V mutant incubated for 4 hrs by AlphaLISA assay; format: cell-based; conditions: CAPAN-1, 4 h
[11] = Inhibition of ERK1/2 phosphorylation in human NCI-H358 cells harboring KRAS G12C mutant incubated for 4 hrs by AlphaLISA assay; format: cell-based; conditions: NCI-H358, 4 h
[12] = Inhibition of ERK1/2 phosphorylation in human ASPC1 cells harboring KRAS G12D mutant incubated for 4 hrs by AlphaLISA assay; format: cell-based; conditions: ASPC1, 4 h
[13] = Metabolic stability in mouse liver microsomes assessed as half-life at 2 uM measured upto 60 mins in presence of NADPH by LC-MS/MS analysis; format: ADME, Microsome
[14] = tested on: A-375; assay: Cytotoxicity against human A-375 cells assessed as reduction in cell viability incubated for 120 hrs by CellTiter-Glo luminescence assay; format: functional, cell-based; conditions: A-375, 120 h
[15] = Kinetic solubility of compound in PBS at pH 7.4 measured after 5 hrs by UV analysis; format: physicochemical; conditions: read-out: Kinetic_solubility
[16] = Apparent permeability across apical to basolateral side in human Caco-2 cells at 5 uM incubated for 2 hrs by LC-MS/MS analysis; format: ADME, cell-based
[17] = Efflux ratio of apparent permeability in human Caco-2 cells at 5 uM incubated for 2 hrs by LC-MS/MS analysis; format: ADME, cell-based
[18] = Lipophilicity, logD of compound at pH 7.4 by Agilent 1290 II uPLC analysis; format: physicochemical; conditions: buffer
[19] = Clearance in female BALB/c mouse blood at 1 mg/kg, iv measured after 24 hrs by LC-MS/MS analysis; format: ADME, organism-based
[20] = Clearance in female BALB/c mouse plasma at 1 mg/kg, iv measured after 24 hrs by LC-MS/MS analysis; format: ADME, organism-based
[21] = Oral bioavailability in female BALB/c mouse blood at 10 mg/kg measured after 24 hrs by LC-MS/MS analysis; format: ADME, organism-based
[22] = Oral bioavailability in female BALB/c mouse plasma at 10 mg/kg measured after 24 hrs by LC-MS/MS analysis; format: ADME, organism-based
[23] = Clearance in female BALB/c mouse at 1 mg/kg, iv measured after 24 hrs by LC-MS/MS analysis; format: ADME, organism-based; conditions: in vivo
[24] = Half-life in female BALB/c mouse at 1 mg/kg, iv measured after 24 hrs by LC-MS/MS analysis; format: ADME, organism-based; conditions: in vivo
[25] = Oral bioavailability in female BALB/c mouse at 10 mg/kg measured after 24 hrs by LC-MS/MS analysis; format: ADME, organism-based; conditions: in vivo
[26] = (§1) In vivo inhibition of MAPK signaling pathway in female BALB/c nude mouse xenografted with human NCI-H441 cells harboring wildtype KRAS/KRAS G12V mutant assessed as decrease in DUSP6 mRNA expression in tumor at 100 mg/kg, po administered as single dose and measured after 2 hrs by qPCR analysis relative to control; format: functional
[27] = as §1, with “200” for “100”; format: functional
[28] = Kinetic solubility of compound in PBS at pH 5.0 measured after 5 hrs by UV analysis; format: physicochemical; conditions: read-out: Kinetic_solubility
[29] = Binding affinity to Cyclophilin A/Avi-tagged KRAS G12V mutant (1 to 169 residues) (unknown origin) assessed as dissociation constant by SPR analysis; parameters: species or system Homo sapiens
[30] = Binding affinity to Cyclophilin A/Avi-tagged KRAS G12D mutant (1 to 169 residues) (unknown origin) assessed as dissociation constant by SPR analysis; parameters: species or system Homo sapiens
[31] = Binding affinity to Cyclophilin A/Avi-tagged KRAS G12C mutant (1 to 169 residues) (unknown origin) assessed as dissociation constant by SPR analysis; parameters: species or system Homo sapiens

Row | pKd [1] | pIC50 [2] | pIC50 [3] | pIC50 [4] | pIC50 [5] | pEC50 [10] | pEC50 [11] | pEC50 [12] | half-life at 2 µM [13] [min] | solubility kinetic at 5 h [15] [µM] | Papp A→B at 2 h, 5 µM [16] [×10⁻⁶ cm/s] | efflux ratio at 2 h, 5 µM [17] | logD [18] | clearance [23] [mL/min/kg] | half-life [24] [min] | SMILES | pEC50 [6] | pEC50 [7] | pEC50 [8] | pEC50 [9] | pEC50 [14] | further results
1 | 6.89 | 7.11 | 6.41 | 7.27 | 6.82 | 9.10 | 8.47 | 8.11 | 103 | 45 (≈ 38.5 µg/mL) | 1 | 9 | 4.7 | – | – | CCn1c(-c2cc(N3CCN(CCOC)CC3)cnc2[C@H](C)OC)c2c3cc(ccc31)-c1csc(n1)C[C@H](NC(=O)[C@H]1C[C@@H]1C)C(=O)N1CCC[C@H](N1)C(=O)OCC(C)(C)C2 | 8.55 | 8.21 | 8.74 | 8.03 | < 5.00 | clearance [19]: 6.67 mL/min/kg; clearance [20]: 30 mL/min/kg; bioavailability [21]: 71%; bioavailability [22]: 57%
2 | 6.55 | – | 5.94 | 7.11 | 6.70 | 8.52 | 8.30 | 7.21 | 19 | 12 (≈ 10.3 µg/mL) | 0.6 | 9.6 | 4.8 | 33.3 | 90 | CCn1c(-c2cccnc2[C@H](C)OC)c2c3cc(ccc31)-c1csc(n1)C[C@H](NC(=O)[C@H](C(C)C)N(C)C(=O)N1CC(OC)C1)C(=O)N1CCC[C@H](N1)C(=O)OCC(C)(C)C2 | 7.80 | – | 8.15 | 7.66 | < 5.00 | pIC50 [7]: 7.12; bioavailability [25]: 17%; inhibition in vivo at 100 mg/kg [26]: 87%; inhibition in vivo at 200 mg/kg [27]: 94%
3 | 5.76 | 6.78 | 6.03 | 6.93 | 6.46 | 7.60 | 7.17 | 6.09 | 53 | 3 (≈ 2.14 µg/mL) | 10.7 | 1 | 4.7 | 10 | 54 | CCn1c(-c2cccnc2[C@H](C)OC)c2c3cc(ccc31)-c1csc(n1)C[C@H](NC(=O)[C@H]1C[C@@H]1C)C(=O)N1CCC[C@H](N1)C(=O)OCC(C)(C)C2 | 6.89 | 6.63 | 7.08 | 7.16 | 5.08 | bioavailability [25]: 75%; solubility kinetic at 5 h [28]: < 2 µM
4 | 6.50 | 5.45 | ≤ 4.67 | 5.71 | 5.31 | 7.49 | 6.94 | 6.07 | 6 | 6 (≈ 4.72 µg/mL) | 0.02 | 13.6 | – | 95 | 36 | CCn1c(-c2cccnc2[C@H](C)OC)c2c3cc(ccc31)-c1csc(n1)C[C@H](NC(=O)[C@H](C(C)C)N(C)C(C)=O)C(=O)N1CCC[C@H](N1)C(=O)OCC(C)(C)C2 | 6.83 | ≤ 6.15 | 6.70 | 7.24 | < 5.00 | pKd [29]: 5.57; pKd [30]: 5.30; pKd [31]: 5.81; bioavailability [25]: ≤ 0.4%
